{"source": "patent US8809526B2", "about": "“Synthesis of cyclopentaquinazolines” (ONYX Pharmaceuticals, Inc., priority 2010, dated 2014)", "assay": "physchem", "format": "physicochemical", "details": "organic solvent or mixture", "protocol": "A 22 L, 3 neck flask was equipped with an overhead stirrer, a N2 inlet, and a type-J Teflon® covered thermocouple. The flask was purged with N2 and charged with the crude alcohol 12 prepared above, acetonitrile (7 L) and triethylamine (1400 mL, 10.0 mol). The batch was cooled to ˜10° C.-15° C. using a cold water bath. To the resulting yellow-green suspension was added solid TBDMSCl (1125 g, 7.50 mol), portionwise over ˜20 minutes. The addition was mildly exothermic causing the internal reaction temperature to rise to ˜20° C. After the addition was complete the reaction was stirred overnight at 20° C. under an atmosphere of N2. The following morning the reaction was judged to be >95% complete by TLC or HPLC. The dark green reaction mixture was filtered through a plasticware filter pot (24″×11″) prepacked with gravity grade silica gel (3 kg-slurried in acetonitrile) and a top and bottom layer of celite 21 (500 grams each). The filter pot was rinsed with acetonitrile (10 L, ACS grade) prior to adding the reaction mixture to the pot. Once the reaction mixture containing green solids was added, the filter pot was rinsed with acetonitrile (80 L, ACS grade), collecting 10 L cuts. The washing operation was monitored by TLC until no more product was detected in the washings. This was concentrated in vacuo to afford 2.2 kg of crude which needed to be purified further by silica gel chromatography. […]"}
{"smiles": "CC(C)(C)[Si](C)(C)OCc1nc2cc3c(cc2c(=O)[nH]1)C(=O)CC3", "note": "[compound 7, 2-(t-Butyldimethylsiloxymethyl)-4,6-dioxo-3,4,7,8-tetrahydro-3H-cyclopenta[g]quinazoline]", "values": [{"measurement": "solubility", "setting": "solubility in 1:1 hexanes:ethyl acetate", "result": 15, "unit": "mg/mL"}, {"measurement": "solubility", "setting": "solubility in ethyl acetate", "result": "~25", "unit": "mg/mL"}]}
